Assay results as given in patent publication US5234932A, “Substituted quinolines and leucotriene antagonism treatment therewith” (Leo Pharmaceutical Products ltd., priority 1989, dated 1993).
Where a name gives a salt, the structure may show the parent alone.

Tests used:
[1] = target: T1, guinea-pig tracheal strips (LTD4) (Cavia porcellus, UniProt Q2NNR5); assay: leukotriene antagonism on guinea-pig tracheal strips (LTD4 concentration-response); assay type: cell-based; details: negative logarithm of the antagonist dissociation constant, -log([antagonist]/(dose ratio -1)), indomethacin present
T1 construct: from tissue; host or cells: guinea-pig tracheal strips
T1 sequence (Q2NNR5 1-340): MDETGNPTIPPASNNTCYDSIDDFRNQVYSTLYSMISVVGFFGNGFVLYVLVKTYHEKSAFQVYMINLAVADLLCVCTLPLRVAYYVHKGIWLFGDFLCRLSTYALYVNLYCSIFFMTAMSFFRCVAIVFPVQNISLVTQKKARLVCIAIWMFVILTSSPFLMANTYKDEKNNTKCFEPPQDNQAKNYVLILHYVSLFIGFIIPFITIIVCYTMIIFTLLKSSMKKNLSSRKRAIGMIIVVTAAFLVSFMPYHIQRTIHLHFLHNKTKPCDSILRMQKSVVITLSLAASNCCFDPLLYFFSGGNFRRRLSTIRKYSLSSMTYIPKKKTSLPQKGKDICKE
Source text: Leukotriene antagonists may be further characterized using guinea-pig tracheal strips instead of ileum strips (10). In this relevant in vitro model of human airways (11) tracheal strips are suspended in a physiological buffer containing indomethacin. A concentration-response curve to LTD4 is generated in the presence and absence of the leukotriene antagonists. From these curves the potency of a leukotriene antagonist may be expressed as the pKB value, the negative logarithm of the antagonist dissociation constant. The pKB value is determined as -log([antagonist]/(dose ratio -1)), where the dose ratio is defined as EC50 (presence of antagonist)/EC50 (absence of antagonist) and EC50 refers to the concentration of LTD4 eliciting 50% of the maximum response to LTD4 (12).

LTD4 receptor = target: T2, LTD4 receptor (Cavia porcellus, UniProt Q2NNR5); assay: [3H]LTD4 receptor binding, guinea-pig lung membranes, direct competition assay; details: negative logarithm of the molar concentration inhibiting [3H]LTD4 binding by 50%
T2 construct: from tissue; host or cells: guinea-pig lung membranes
T2 sequence (Q2NNR5 1-340): T1 sequence (Q2NNR5 1-340)
Source text: It is of importance to investigate the receptor binding properties of leukotriene antagonists in relation to their pKB values (13), i.e. to correlate antagonist receptor blocking with inhibition of smooth muscle contraction. Receptor binding studies may be performed with guinea-pig lung membranes in a direct competition assay between a leukotriene antagonist and [^3 H]LTD4 for binding to the LTD4 receptor (10,13).

[2] = tested on: guinea-pig ileum strips (LTD4); assay: inhibition of LTD4-induced contraction of guinea-pig ileum strips; assay type: cell-based; details: LTD4 at 10^-9 M; compound added 2 minutes prior; atropine and indomethacin present
Procedure: Leukotriene antagonists may be identified by observing the contractions elicited in preparations of guinea-pig ileum strips suspended in a physiological buffer by addition of pure leukotriene D4 (LTD4) (10). The ileum strips are connected to an isotonic transducer, and the contractions are continuously recorded on a multichannel recorder. Before addition of LTD4, atropine and indomethacin are added to the buffer in order to block any cholinergic or prostaglandin mediated contractile effects. Test compounds to be studied with respect to leukotriene antagonism are dissolved in DMSO and added to the organ bath 2 minutes prior to addition of LTD4 at 10^-9 M (final concentration), the final concentration of DMSO being 0.1%, a concentration which can be shown not to affect the ileum response to LTD4. The test compounds may be added at various concentrations, often beginning at […] and then decreasing the concentration in case of antagonism.
When the compounds of the present invention were added to the ileum preparation before addition of LTD4 a significant inhibition occurred of the specific LTD4 -induced contraction. […] On other hand, contractions induced with histamine at 10^-7 M were not inhibited by these compounds even at micromolar concentrations.

cyclooxygenase = assay: synthesis of cyclooxygenase products in A23187-stimulated rat peritoneal cells; assay type: cell-based; details: final concentration of 10^-6 M
Procedure: (§1) The following method was used to assay 5-lipoxygenase activity in vitro: Rat peritoneal cells were harvested by i.p. injection of 10 ml Hank's balanced salt solution (GIBCO, cat No. 4025, U.S.A.) containing 12.5 U/ml sodium heparin (Leo, Denmark) in anaesthesized rats. The resulting cell suspension, which mainly contained macrophages, was transferred to a test tube and washed twice by centrifugation (200 g, 10 min.) and resuspended in Hank's balanced salt solution containing 0.5% bovine serum albumin (BSA) (Sigma Chem. Co., U.S.A.). The cells from 9 rats were finally resuspended in Hank's balanced salt solution (with BSA) containing 5μCi [1-^14 C]arachidonic acid (The Radiochemical Centre, Amersham, U.K.) and incubated for 90 minutes at 37° C. This caused labelling of cell membrane phospholipids as radioactive arachidonic acid was incorporated in the 2-position of the glycerol moiety. Excess arachidonic acid was then removed by washing the cells twice as described above. The cells were finally resuspended in the same solution (without BSA) at 10^7 cells/ml. 475 μl of the cell suspension was preincubated at 37° C. for 5 minutes with either 5 μl dimethylsalphoxide (DMSO) (control tube), or 5 μl of a drug solution in DMSO. Then 20 μl of a mixture of equal volumes of the calcium ionophore A23187, 10^-4 M in ethanol (Calbiochem, U.S.A.), and 0.4M CaCl2 in water was added. The final concentration of A23187 was thus 2×10^-6 M, and of Ca^++ 8 mM. After 5 minutes of incubation the tubes were transferred to an ice-bath and centrifuged for 10 minutes at 3,000 g (4° C.). An aliquot of the supernatant was counted by liquid scintillation spectrometry in order to calculate the total radioactive release induced by A23187 in presence of drugs. A decrease in radioactive release was taken as indication of phospholipase A2 inhibition. The supernatant was then extracted with ethyl acetate (2 ml), adjusted to pH 3 with 1N HCl and further extracted with 2 ml ethyl acetate. The combined extracts were evaporated to dryness in vacuo, the residue was redissolved in a small volume of methanol and applied by means of a Desaga Autospotter™ to a silica-gel coated thin-layer plate fitted with a polar concentrating zone (Merck Art. 11798, Darmstadt, F.R.G.). The plates were developed in the organic layer of the solvent mixture ethyl acetate/acetic acid/iso-octane/water (55:10:25:50). Radioactive spots were detected by autoradiography (AGFA-GEVAERT, Osray-RPI X-ray film, Belgium), and changes induced by drugs in the metabolic pattern of arachidonic acid were quantified by a laser densitometer (LKB, Ultroscan ™2202, Bromma, Sweden) in combination with an integrating computer (SP 4100, Spectra-Physics, San Jose, Calif., U.S.A.).
These cells produced measurable amounts of radioactive 6-keto-prostaglandinF1α, thromboxane B2, prostaglandin D2, hydroxyheptadecatrienoic acid (HHT) (all cyclooxygenase products), 5-hydroxyeicosatetraenoic acid (5-HETE) and leukotriene B4 (both 5-lipoxygenase products).
At the same time, a decrease in synthesis of the cyclooxygenase products HHT, prostaglandin D2, thromboxane B2 and 6-ketoprostaglandin F1α was not observed. This pattern of drug activity is indicative of truly specific 5-lipoxygenase inhibition.

5-lipoxygenase = target: T3, 5-lipoxygenase (Rattus norvegicus, UniProt P12527); assay: 5-lipoxygenase activity in vitro (A23187-stimulated rat peritoneal cells, leukotriene B4 and 5-HETE production); assay type: cell-based; details: final concentration of 10^-6 M; A23187 2×10^-6 M
T3 construct: LTB4 and 5-HETE measured by TLC
T3 sequence (P12527 1-673): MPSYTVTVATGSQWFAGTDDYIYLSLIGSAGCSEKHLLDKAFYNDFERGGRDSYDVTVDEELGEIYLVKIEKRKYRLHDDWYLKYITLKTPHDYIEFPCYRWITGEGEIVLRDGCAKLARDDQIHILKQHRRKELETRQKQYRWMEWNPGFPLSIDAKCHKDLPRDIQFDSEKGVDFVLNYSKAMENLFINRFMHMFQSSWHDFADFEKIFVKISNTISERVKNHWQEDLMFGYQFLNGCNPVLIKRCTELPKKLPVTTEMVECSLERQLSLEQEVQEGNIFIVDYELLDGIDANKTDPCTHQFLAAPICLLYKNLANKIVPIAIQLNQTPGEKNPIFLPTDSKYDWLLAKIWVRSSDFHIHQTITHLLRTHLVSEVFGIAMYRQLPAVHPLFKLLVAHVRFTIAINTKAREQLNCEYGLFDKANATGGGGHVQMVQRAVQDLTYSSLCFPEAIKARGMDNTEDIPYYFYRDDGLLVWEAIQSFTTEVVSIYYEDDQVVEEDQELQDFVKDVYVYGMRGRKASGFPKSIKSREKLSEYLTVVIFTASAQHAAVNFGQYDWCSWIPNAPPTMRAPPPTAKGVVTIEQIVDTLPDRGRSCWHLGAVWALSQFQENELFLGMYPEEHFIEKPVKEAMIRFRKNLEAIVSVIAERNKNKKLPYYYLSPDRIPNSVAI
Procedure: as §1, with “Calif., U.S.A.). […]” for “Calif., U.S.A.).”

| Kb [1] [nM] | IC50 (LTD4 receptor) [nM] | decrease in the production of 5-HETE (5-lipoxygenase) | decrease in the production of leukotriene B4 (5-lipoxygenase) | SMILES | concentrations at which inhibition of LTD4-induced contraction occurred [2] | decrease in synthesis of the cyclooxygenase product 6-ketoprostaglandin F1α (cyclooxygenase) | decrease in synthesis of the cyclooxygenase product HHT (cyclooxygenase) | decrease in synthesis of the cyclooxygenase product prostaglandin D2 (cyclooxygenase) | decrease in synthesis of the cyclooxygenase product thromboxane B2 (cyclooxygenase) |
| --- | --- | --- | --- | --- | --- | --- | --- | --- | --- |
| 1 | 15.8 |  |  | O=C(O)C(Nc1cccc(OCc2ccc3ccccc3n2)c1)c1ccccc1 (racemic) [Example 15, (S,R)-2-[3-(2-Quinolylmethyloxy)-anilino]-2-phenyl acetic acid] |  |  |  |  |  |
|  |  |  |  | O=C(O)C(Nc1ccc(OCc2ccc3ccccc3n2)cc1)c1ccccc1 (racemic) [Example 17, (S,R)-2-[4-(2-Quinolylmethyloxy)-anilino]-2-phenyl acetic acid] | submicromolar range |  |  |  |  |
| 0.2 | 2.51 |  |  | O=C(O)[C@H](O)[C@H](Nc1cccc(OCc2ccc3ccccc3n2)c1)c1ccccc1 (relative stereo) [Example 1, (2R,3R;2S,3S)-3-[3-(2-Quinolylmethoxy)-anilino]-2-hydroxy-3-phenyl propionic acid, sodium salt] |  |  |  |  |  |
|  |  | significant and specific decrease | significant and specific decrease | CCOC(=O)[C@H](O)[C@H](Nc1cccc(OCc2ccc3ccccc3n2)c1)c1cccc(Cl)c1 (relative stereo) [Example 9] |  | not observed | not observed | not observed | not observed |
|  |  | significant and specific decrease | significant and specific decrease | CCOC(=O)[C@H](O)[C@H](Nc1ccc(OCc2ccc3ccccc3n2)cc1)c1ccccc1 (relative stereo) [Example 11, (2S,3R;2S,3S)-3-[4-(2-Quinolylmethyloxy)-anilino]-2-hydroxy-3-phenyl propionic acid ethyl ester] |  | not observed | not observed | not observed | not observed |
